{"source": "patent US11021500B2", "about": "“Process for preparing optically active 2,3-bisphosphino-substituted quinoxalines” (Nippon Chemical Industrial Co., Ltd., priority 2017, dated 2021)", "data": [{"smiles": "C[P@@](c1nc2ccccc2nc1[P@](C)C(C)(C)C)C(C)(C)C", "note": "[Compound (a3), (R,R)-2,3-bis(tert-butylmethylphosphino)quinoxaline]", "values": [{"measurement": "melting point", "value": "102 to 103", "unit": "°C"}]}]}
